Results on 3 compounds are retold here after US9006256B2, “Antitumor agent for thyroid cancer” (Eisai R&D Management Co., Ltd., priority 2006, dated 2015).

The structures appear in SMILES notation.

Assay [1] deals with Erk1/2. The assay is described as follows: Erk1/2 phosphorylation in human medullary thyroid carcinoma cell line (TT), western blotting. The class given is cell-based. The settings on record: TT cells, 1 hour treatment. The method, then:
Human medullary thyroid carcinoma cell line (TT, purchased from ATCC) was suspended in RPMI1640 medium containing 15% FBS (purchased from Sigma). TT is a cell expressing RET where cysteine at codon 634 in the wild-type RET amino acid sequence is mutated with tryptophan (Biochemical and Biophysical Research Communications, 207, 1022-1028, 1995). Two mL of this cell suspension per well (4×10^5 cells/mL) was added to 6-well cell culture plate (purchased from FALCON), and cultured in a 5% CO2 incubator (37° C.) overnight. After cultivation, supernatant was removed from each well and 1.8 mL of RPMI1640 medium containing 15% FBS was added. […] Supernatant was removed from each well, which was then washed with 400 μL of PBS, and added with 100 μL of solubilizing buffer (50 mM Hepes (pH7.4), 150 mM NaCl, 10% (v/v) glycerol, 1% Triton X-100, 1.5 mM MgCl2, 1 mM EDTA (pH 8.0), 100 mM NaF, 1 mM PMSF, 10 μg/mL, Aprotinin, 50 μg/mL Leupeptin, 1 μg/mL Pepstatin A and 1 mM Na3VO4). Cells in this solution were harvested with a scraper and treated at 15,000 rpm and 4° C. for 15 minutes. SDS buffer was added to the supernatant and subjected to treatment at 94° C. for 5 minutes to solubilize the protein, which was then prepared to 20 μg/10 μL as a cell extract. […]

For assay [2], the system named is human medullary thyroid carcinoma cell line (TT). The assay is described as follows: Cell growth of human medullary thyroid carcinoma cell line (TT). The class given is cell-based. The conditions noted are these: 240 h, TT cells, 10 days culture, read-out: inhibitory activity against cell growth (IC50). The method, then: Human medullary thyroid carcinoma cell line (TT, purchased from ATCC) was suspended in RPMI1640 medium containing 15% FBS (purchased from Sigma). 0.1 mL per well of this cell suspension (3×10^4 cells/mL) was added to 96-well cell culture plate (purchased from NUNC), and cultured in a 5% CO2 incubator (37° C.) overnight. […] After cultivation, 10 μL of […] (purchased from DOJINDO) was added to each well, treated in 5% CO2 incubator (37° C.) for color development and absorbance of each well was determined with plate reader MTP-500 (Corona Electric) at measurement wavelength of 415 nm and reference wavelength of 660 nm. Percentage (%) of the absorbance of each well with the test substance was determined compared to the absorbance of well without the test substance, based on which concentration of the test substance required for inhibiting cell growth for 50% (IC50) was calculated.

The test system is the same in assay [3]. The assay is described as follows: Antitumor effect in model for subcutaneous transplantation of human medullary thyroid carcinoma cell line (TT). The settings on record: oral, 10, 30 or 100 mg/kg, once a day, four weeks. The class given is in vivo, nude mouse. The method, then:
(§1) Human medullary thyroid carcinoma cell line (TT, purchased from ATCC) was cultured at 37° C. in RPMI1640 (containing 15% FBS) in a 5% carbon dioxide incubator to about 80% confluence, and cells were harvested with trypsin-EDTA according to a general method. The cells were suspended in a phosphate buffer to prepare 1×10^8 cells/mL suspension. 0.1 mL each of the resulting cell suspension was subcutaneously transplanted to a nude mouse at the side of its body (purchased from Charles River).
The major and minor axes of tumors were measured with Digimatic caliper (Mitsutoyo), and tumor volumes were calculated according to the following formula. Tumor Volume (TV)=Major axis of tumor (mm)×(Minor axis of tumor)^2 (mm^2)/2

In assay [4] the target is T1, RET (Homo sapiens, UniProt P07949, C634W).
T1 construct: from tissue; host or cells: Subcutaneous TT tumour resected from nude mice (TT from ATCC, mice from Charles River)
The assay is described as follows: RET phosphorylation in tumor tissue of model for subcutaneous transplantation of TT. The class given is in vivo, nude mouse. The conditions noted are these: oral, 10, 30 or 100 mg/kg; tumors resected 2, 8, 12 or 24 hours after administration. The method, then: as §1
Tumors were resected 2, 8, 12 or 24 hours after administration, to which solubilizing buffer (50 mM Hepes (pH7.4), 150 mM NaCl, 10% (v/v) glycerol, 1% Triton X-100, 1.5 mM MgCl2, 1 mM EDTA (pH 8.0), 100 mM NaF, 1 mM PMSF, 10 μg/mL Aprotinin, 50 μg/mL Leupeptin, 1 μg/mL Pepstatin A, 1 mM Na3VO4), 25 mM β-glycerophosphate, and phosphatase inhibitor cocktail II (SIGMA)) were added and homogenized. Treatment at 15,000 rpm and 4° C. for 15 minutes and addition of SDS buffer to the supernatant were followed by treatment at 94° C. for 5 minutes to solubilize protein to 20 μg/10 μL to prepare cell extract. The cell extract was subjected to electrophoresis and immunoblotting in the same manner as in Example 2.

The test system of assay [5] is human medullary thyroid carcinoma cell line (TT). The settings on record: Journal of the National Cancer Institute, 98, 326-334, 2006; cited from earlier work.
Assay [6] deals with NIH3T3 cells transformed with mutant RET. The settings on record: Cancer Research, 15, 7284-7290, 2002; cited from earlier work.
Assay [7] has the same test system. The conditions noted are these: Cancer Research, 15, 7284-7290, 2002; cited from earlier work. The source holds these as a separate data set.

T1 sequence (P07949 29-1114 C634W): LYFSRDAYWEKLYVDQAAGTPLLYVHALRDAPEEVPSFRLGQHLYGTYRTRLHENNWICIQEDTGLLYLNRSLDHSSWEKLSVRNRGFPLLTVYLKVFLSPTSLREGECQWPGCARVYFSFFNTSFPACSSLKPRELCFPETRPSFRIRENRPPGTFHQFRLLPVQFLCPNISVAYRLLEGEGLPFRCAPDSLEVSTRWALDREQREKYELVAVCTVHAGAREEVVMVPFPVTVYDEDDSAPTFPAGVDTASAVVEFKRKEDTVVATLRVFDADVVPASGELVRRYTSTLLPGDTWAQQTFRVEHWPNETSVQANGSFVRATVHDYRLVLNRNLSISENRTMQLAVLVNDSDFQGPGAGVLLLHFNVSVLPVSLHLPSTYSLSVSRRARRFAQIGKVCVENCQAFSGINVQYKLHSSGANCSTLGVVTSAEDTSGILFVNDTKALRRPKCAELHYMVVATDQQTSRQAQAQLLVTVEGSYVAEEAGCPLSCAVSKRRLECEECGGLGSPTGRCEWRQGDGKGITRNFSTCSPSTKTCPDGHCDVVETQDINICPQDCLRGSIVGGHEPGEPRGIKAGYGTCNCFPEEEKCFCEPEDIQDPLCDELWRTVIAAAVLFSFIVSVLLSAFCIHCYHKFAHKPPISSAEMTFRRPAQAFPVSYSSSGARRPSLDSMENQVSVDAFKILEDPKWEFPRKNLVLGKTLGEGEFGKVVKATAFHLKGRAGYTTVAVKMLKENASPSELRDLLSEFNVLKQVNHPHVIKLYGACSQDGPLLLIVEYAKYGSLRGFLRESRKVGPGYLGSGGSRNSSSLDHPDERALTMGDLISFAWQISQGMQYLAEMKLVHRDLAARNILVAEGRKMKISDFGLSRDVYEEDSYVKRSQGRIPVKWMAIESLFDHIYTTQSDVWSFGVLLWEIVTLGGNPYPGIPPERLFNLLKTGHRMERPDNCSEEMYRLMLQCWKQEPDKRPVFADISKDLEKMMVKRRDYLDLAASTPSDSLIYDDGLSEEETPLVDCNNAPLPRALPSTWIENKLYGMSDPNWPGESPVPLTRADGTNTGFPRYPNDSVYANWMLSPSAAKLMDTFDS

`COc1cc2nccc(Oc3ccc(NC(=O)NC4CC4)c(Cl)c3)c2cc1C(N)=O` [4-(3-chloro-4-(cyclopropylaminocarbonyl)aminophenoxy)-7-methoxy-6-quinolinecarboxamide]: in assay [1], the “inhibition of Erk1/2 phosphorylation” value is reported as “at a concentration similar to that for RET kinase”. Further, the IC50 in assay [2] worked out at 78 nM. The “antitumor effect (tumor volume)” value in assay [3] is “dose-dependent antitumor effect”. The “RET autophosphorylation inhibitory activity in tumor” value in assay [4] is listed as “RET autophosphorylation inhibitory activity at the dose found to exert antitumor effect”.
In the case of `CNC(=O)c1cc(Oc2ccc(NC(=O)Nc3ccc(Cl)c(C(F)(F)F)c3)cc2)ccn1` [BAY 43-9006], the size of tumor result in assay [5] is given as “reduce the size of tumor”.
For `COc1cc2c(Nc3ccc(Br)cc3F)ncnc2cc1OCC1CCN(C)CC1` [ZD6474], the scaffold-independent proliferation result in assay [6] is listed as “suppress scaffold-independent proliferation”. The tumor formation result in assay [7] is recorded as “inhibited tumor formation”.
